Assay results: patent US8013156B2 (Exelixis, Inc., priority 2003, dated 2011)

What follows are compounds tested against Tie-2 (Homo sapiens, UniProt Q02763) (assay: Tie-2 tyrosine kinase activity assay (luciferase/luciferin ATP consumption with pEY substrate, or 33P-ATP incorporation)). Conditions: human enzyme Tie-2.
Tie-2, sequence (Q02763 23-1124): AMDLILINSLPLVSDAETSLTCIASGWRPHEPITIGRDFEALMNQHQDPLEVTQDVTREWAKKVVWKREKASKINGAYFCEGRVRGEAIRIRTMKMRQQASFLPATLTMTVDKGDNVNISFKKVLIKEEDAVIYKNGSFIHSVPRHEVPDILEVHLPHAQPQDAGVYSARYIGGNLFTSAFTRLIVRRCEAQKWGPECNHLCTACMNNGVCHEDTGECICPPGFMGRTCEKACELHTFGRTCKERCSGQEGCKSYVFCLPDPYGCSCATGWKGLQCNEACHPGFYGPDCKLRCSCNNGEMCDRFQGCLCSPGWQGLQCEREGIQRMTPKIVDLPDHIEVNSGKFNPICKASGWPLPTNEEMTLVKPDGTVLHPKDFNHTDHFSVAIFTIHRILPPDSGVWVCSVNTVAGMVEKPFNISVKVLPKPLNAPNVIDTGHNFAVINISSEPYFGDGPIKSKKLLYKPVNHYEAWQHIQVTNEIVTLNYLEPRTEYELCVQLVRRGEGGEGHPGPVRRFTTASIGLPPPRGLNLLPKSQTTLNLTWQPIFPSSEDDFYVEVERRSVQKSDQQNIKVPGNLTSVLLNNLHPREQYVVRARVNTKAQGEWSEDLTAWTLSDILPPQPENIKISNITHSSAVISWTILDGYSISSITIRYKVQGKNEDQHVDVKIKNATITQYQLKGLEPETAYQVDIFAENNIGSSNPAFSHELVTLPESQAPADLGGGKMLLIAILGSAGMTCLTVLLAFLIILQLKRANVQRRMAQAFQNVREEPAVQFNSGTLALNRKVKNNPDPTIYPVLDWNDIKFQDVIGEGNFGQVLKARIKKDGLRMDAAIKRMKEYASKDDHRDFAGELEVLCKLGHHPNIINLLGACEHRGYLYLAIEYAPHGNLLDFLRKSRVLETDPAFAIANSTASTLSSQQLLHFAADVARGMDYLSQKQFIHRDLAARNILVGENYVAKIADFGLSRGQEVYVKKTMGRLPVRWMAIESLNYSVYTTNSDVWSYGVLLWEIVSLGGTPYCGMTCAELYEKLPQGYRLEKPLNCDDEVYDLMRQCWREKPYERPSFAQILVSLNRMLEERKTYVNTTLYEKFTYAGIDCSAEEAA
Assay type: biochemical
Procedure, shortened: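 Values are IC50 categories (A <50 nM to D ≥10,000 nM), with Ki obtainable by fitting rates to a tight-binding model. Assay formats: 33P-ATP phosphate transfer to adsorbed generic substrate counted by scintillation, or luciferase-detected ATP depletion using pEY.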
For `COc1cccc(NC(=O)N2CCN(c3ncccc3OCc3ccnc(N)n3)CC2)c1` [Example 166, 4-(3-{[(2-aminopyrimidin-4-yl)methyl]oxy}pyridin-2-yl)-N-[3-(methyloxy)phenyl]piperazine-1-carboxamide], the IC50 was 50 to 1000 nM. `CC(C)c1cccc(NC(=O)N2CCN(c3ncccc3OCc3ccnc(N)n3)CC2)c1` [Example 167, 4-(3-{[(2-aminopyrimidin-4-yl)methyl]oxy}pyridin-2-yl)-N-[3-(1-methylethyl)phenyl]piperazine-1-carboxamide] gave an IC50 of less than 50 nM. For `Nc1nccc(COc2cccnc2N2CCN(C(=O)Nc3cccc(OC(F)(F)F)c3)CC2)n1` [Example 168, 4-(3-{[(2-aminopyrimidin-4-yl)methyl]oxy}pyridin-2-yl)-N-{3-[(trifluoromethyl)oxy]phenyl}piperazine-1-carboxamide], the IC50 was less than 50 nM. In the case of `Nc1nccc(COc2cccnc2N2CCN(C(=O)Nc3cc(C(F)(F)F)ccc3F)CC2)n1` [Example 169, 4-(3-{[(2-aminopyrimidin-4-yl)methyl]oxy}pyridin-2-yl)-N-[2-fluoro-5-(trifluoromethyl)phenyl]piperazine-1-carboxamide], the IC50 is reported as less than 50 nM. `CCc1cccc(NC(=O)Nc2cc(COc3cccnc3N3CCN(C(=O)Nc4cccc(CC)c4)CC3)ccn2)c1` [Example 170, N-(3-ethylphenyl)-4-[3-({[2-({[(3-ethylphenyl)amino]carbonyl}amino)pyridin-4-yl]methyl}oxy)pyridin-2-yl]piperazine-1-carboxamide] was tested, and the IC50 was less than 50 nM. `CCc1cccc(NC(=O)N2CCN(c3ncccc3OCc3ccnc(NC(=O)CN4CCN(C)CC4)c3)CC2)c1` [Example 171, N-(3-ethylphenyl)-4-(3-{[(2-{[(4-methylpiperazin-1-yl)acetyl]amino}pyridin-4-yl)methyl]oxy}pyridin-2-yl)piperazine-1-carboxamide] gave an IC50 of less than 50 nM. Compound `CCc1cccc(NC(=O)N2CCN(c3nsnc3OCc3ccnc(NC(=O)CN4CCN(C)CC4)c3)CC2)c1` [Example 172, N-(3-ethylphenyl)-4-(4-{[(2-{[(4-methylpiperazin-1-yl)acetyl]amino}pyridin-4-yl)methyl]oxy}-1,2,5-thiadiazol-3-yl)piperazine-1-carboxamide] has an IC50 of less than 50 nM. For `CN1CCN(CC(=O)Nc2cc(COc3cccnc3N3CCN(C(=O)Nc4cc(C(F)(F)F)cc(C(F)(F)F)c4)CC3)ccn2)CC1` [Example 173, N-[3,5-bis(trifluoromethyl)phenyl]-4-(3-{[(2-{[(4-methylpiperazin-1-yl)acetyl]amino}pyridin-4-yl)methyl]oxy}pyridin-2-yl)piperazine-1-carboxamide], the IC50 was less than 50 nM. Work on `Nc1nccc(COc2cccnc2N2CCN(C(=O)Nc3cccc(C(F)(F)F)c3)CC2)n1` [Example 174, 4-(3-{[(2-aminopyrimidin-4-yl)methyl]oxy}pyridin-2-yl)-N-[3-(trifluoromethyl)phenyl]piperazine-1-carboxamide] yielded an IC50 of less than 50 nM. `CCc1cc(NC(=O)N2CCN(c3ncccc3OCc3ccnc(N)n3)CC2)ccc1F` [Example 176, 4-(3-{[(2-aminopyrimidin-4-yl)methyl]oxy}pyridin-2-yl)-N-(3-ethyl-4-fluorophenyl)piperazine-1-carboxamide] showed an IC50 of less than 50 nM. In the case of `Nc1nccc(COc2cccnc2N2CCN(CC(=O)Nc3cc(C(F)(F)F)cc(C(F)(F)F)c3)CC2)n1` [Example 177, 2-[4-(3-{[(2-aminopyrimidin-4-yl)methyl]oxy}pyridin-2-yl)piperazin-1-yl]-N-[3,5-bis(trifluoromethyl)phenyl]acetamide], the IC50 is reported as 1000 to 10000 nM. `Nc1nccc(COc2cccnc2N2CCN(C(=O)Nc3ccccc3)CC2)n1` [Example 178, 4-(3-{[(2-aminopyrimidin-4-yl)methyl]oxy}pyridin-2-yl)-N-phenylpiperazine-1-carboxamide] gave an IC50 of 1000 to 10000 nM. In the case of `CCc1cc(Cl)cc(NC(=O)N2CCN(c3ncccc3OCc3ccnc(N)n3)CC2)c1` [Example 179, 4-(3-{[(2-aminopyrimidin-4-yl)methyl]oxy}pyridin-2-yl)-N-(3-chloro-5-ethylphenyl)piperazine-1-carboxamide], the IC50 is reported as less than 50 nM. `CCc1ccc(F)c(NC(=O)N2CCN(c3ncccc3OCc3ccnc(N)n3)CC2)c1` [Example 180, 4-(3-{[(2-aminopyrimidin-4-yl)methyl]oxy}pyridin-2-yl)-N-(5-ethyl-2-fluorophenyl)piperazine-1-carboxamide] showed an IC50 of less than 50 nM. `CCc1cc(Br)cc(NC(=O)N2CCN(c3ncccc3OCc3ccnc(N)n3)CC2)c1` [Example 181, 4-(3-{[(2-aminopyrimidin-4-yl)methyl]oxy}pyridin-2-yl)-N-(3-bromo-5-ethylphenyl)piperazine-1-carboxamide] was tested, and the IC50 was less than 50 nM. In the case of `CCc1cccc(NC(=O)N2CCN(c3ncccc3OCc3ccnc(NC(=O)OCCN4CCN(C)CC4)c3)CC2)c1` [Example 182, 2-(4-methylpiperazin-1-yl)ethyl [4-({[2-(4-{[(3-ethylphenyl)amino]carbonyl}piperazin-1-yl)pyridin-3-yl]oxy}methyl)pyridin-2-yl]carbamate], the IC50 is reported as less than 50 nM. `Nc1nccc(COc2cccnc2N2CCN(C(=O)Nc3cccc(Cl)c3)CC2)n1` [Example 183, 4-(3-{[(2-aminopyrimidin-4-yl)methyl]oxy}pyridin-2-yl)-N-(3-chlorophenyl)piperazine-1-carboxamide] was tested, and the IC50 was 50 to 1000 nM. In the case of `Nc1nccc(COc2cccnc2N2CCN(C(=O)Nc3cccc(Br)c3)CC2)n1` [Example 184, 4-(3-{[(2-aminopyrimidin-4-yl)methyl]oxy}pyridin-2-yl)-N-(3-bromophenyl)piperazine-1-carboxamide], the IC50 is reported as less than 50 nM. `CC(=O)N1CCN(c2ncccc2OCc2ccnc(NC(=O)CN3CCN(C)CC3)c2)CC1` [Example 185, N-[4-({[2-(4-acetylpiperazin-1-yl)pyridin-3-yl]oxy}methyl)pyridin-2-yl]-2-(4-methylpiperazin-1-yl)acetamide] showed an IC50 of no less than 10000 nM. In the case of `Nc1nccc(COc2cccnc2N2CCN(C(=O)Nc3cccc(F)c3)CC2)n1` [Example 186, 4-(3-{[(2-aminopyrimidin-4-yl)methyl]oxy}pyridin-2-yl)-N-(3-fluorophenyl)piperazine-1-carboxamide], the IC50 is reported as 50 to 1000 nM. Compound `Nc1nccc(COc2cccnc2N2CCN(C(=O)Nc3ccc(F)cc3)CC2)n1` [Example 187, 4-(3-{[(2-aminopyrimidin-4-yl)methyl]oxy}pyridin-2-yl)-N-(4-fluorophenyl)piperazine-1-carboxamide] has an IC50 of 1000 to 10000 nM. Compound `Nc1nccc(COc2cccnc2N2CCN(C(=O)Nc3ccccc3F)CC2)n1` [Example 188, 4-(3-{[(2-aminopyrimidin-4-yl)methyl]oxy}pyridin-2-yl)-N-(2-fluorophenyl)piperazine-1-carboxamide] has an IC50 of 1000 to 10000 nM. `CCc1cc(CC)cc(NC(=O)N2CCN(c3ncccc3OCc3ccnc(N)n3)CC2)c1` [Example 189, 4-(3-{[(2-aminopyrimidin-4-yl)methyl]oxy}pyridin-2-yl)-N-(3,5-diethylphenyl)piperazine-1-carboxamide] showed an IC50 of less than 50 nM. `CCc1cccc(NC(=O)N2CCN(c3ncc(Br)cc3OCc3ccnc(N)n3)CC2)c1` [Example 190, 4-(3-{[(2-aminopyrimidin-4-yl)methyl]oxy}-5-bromopyridin-2-yl)-N-(3-ethylphenyl)piperazine-1-carboxamide] was tested, and the IC50 was less than 50 nM. `CNC(=O)N1CCN(c2ncccc2OCc2ccnc(NC(=O)CN3CCN(C)CC3)c2)CC1` [Example 191, N-methyl-4-(3-{[(2-{[(4-methylpiperazin-1-yl)acetyl]amino}pyridin-4-yl)methyl]oxy}pyridin-2-yl)piperazine-1-carboxamide] showed an IC50 of 1000 to 10000 nM. Work on `Nc1nccc(COc2cccnc2N2CCN(C(=O)Nc3cc(C(F)(F)F)ccc3Cl)CC2)n1` [Example 192, 4-(3-{[(2-aminopyrimidin-4-yl)methyl]oxy}pyridin-2-yl)-N-[2-chloro-5-(trifluoromethyl)phenyl]piperazine-1-carboxamide] yielded an IC50 of less than 50 nM. `Nc1nccc(COc2cccnc2N2CCN(C(=O)Nc3cc(Cl)ccc3F)CC2)n1` [Example 193, 4-(3-{[(2-aminopyrimidin-4-yl)methyl]oxy}pyridin-2-yl)-N-(5-chloro-2-fluorophenyl)piperazine-1-carboxamide] showed an IC50 of 50 to 1000 nM. `CCc1cccc(NC(=O)N2CCN(c3ncc(Br)cc3OCc3nc(N)ncc3Br)CC2)c1` [Example 194, 4-(3-{[(2-amino-5-bromopyrimidin-4-yl)methyl]oxy}-5-bromopyridin-2-yl)-N-(3-ethylphenyl)piperazine-1-carboxamide] was tested, and the IC50 was less than 50 nM. In the case of `Nc1nccc(COc2cccnc2N2CCN(C(=O)Nc3cccc(C(F)(F)F)c3F)CC2)n1` [Example 195, 4-(3-{[(2-aminopyrimidin-4-yl)methyl]oxy}pyridin-2-yl)-N-[2-fluoro-3-(trifluoromethyl)phenyl]piperazine-1-carboxamide], the IC50 is reported as 50 to 1000 nM. For `Nc1nccc(COc2cccnc2N2CCN(C(=O)Nc3cc(F)cc(C(F)(F)F)c3)CC2)n1` [Example 196, 4-(3-{[(2-aminopyrimidin-4-yl)methyl]oxy}pyridin-2-yl)-N-[3-fluoro-5-(trifluoromethyl)phenyl]piperazine-1-carboxamide], the IC50 was less than 50 nM. With `Nc1nccc(COc2cccnc2N2CCN(C(=O)Nc3cc(Cl)cc(Cl)c3)CC2)n1` [Example 197, 4-(3-{[(2-aminopyrimidin-4-yl)methyl]oxy}pyridin-2-yl)-N-(3,5-dichlorophenyl)piperazine-1-carboxamide] the IC50 was less than 50 nM. Compound `CCc1cc(Cl)cc(NC(=O)N2CCN(c3ncccc3OCc3ccnc(NC(=O)CN4CCN(C)CC4)c3)CC2)c1` [Example 198, N-(3-chloro-5-ethylphenyl)-4-(3-{[(2-{[(4-methylpiperazin-1-yl)acetyl]amino}pyridin-4-yl)methyl]oxy}pyridin-2-yl)piperazine-1-carboxamide] has an IC50 of less than 50 nM. `CCc1ccc(F)c(NC(=O)N2CCN(c3ncccc3OCc3ccnc(NC(=O)CN4CCN(C)CC4)c3)CC2)c1` [Example 199, N-(5-ethyl-2-fluorophenyl)-4-(3-{[(2-{[(4-methylpiperazin-1-yl)acetyl]amino}pyridin-4-yl)methyl]oxy}pyridin-2-yl)piperazine-1-carboxamide] gave an IC50 of less than 50 nM.
